Here are results for two compounds from patent US20080039495A1, “Diamine Beta2 Adrenergic Receptor Agonists” (priority 2004, published 2008).

The test system of assay [1] is acetylcholine-induced bronchospasm. The experiment in a line: Bronchoprotection against acetylcholine-induced bronchospasm in a guinea pig model (Test D). Type of assay: in vivo. The conditions noted are these: inhalation. As for the experimental part: Groups of 6 male guinea pigs (Duncan-Hartley (HsdPoc:DH) Harlan, Madison, Wis.) weighing between 250 and 350 g were individually identified by cage cards. Throughout the study animals were allowed access to food and water ad libitum.
Test compounds were administered via inhalation over 10 minutes in a whole-body exposure dosing chamber (R&S Molds, San Carlos, Calif.). The dosing chambers were arranged so that an aerosol was simultaneously delivered to 6 individual chambers from a central manifold. Following a 60 minute acclimation period and a 10 minute exposure to nebulized water for injection (WFI), guinea pigs were exposed to an aerosol of test compound or vehicle (WFI). These aerosols were generated from aqueous solutions using an LC Star Nebulizer Set (Model 22F51, PARI Respiratory Equipment, Inc. Midlothian, Va.) driven by a mixture of gases (CO2=5%, O2=21% and N2=74%) at a pressure of 22 psi. The gas flow through the nebulizer at this operating pressure was approximately 3 L/minute. The generated aerosols were driven into the chambers by positive pressure. No dilution air was used during the delivery of aerosolized solutions. During the 10 minute nebulization, approximately 1.8 mL of solution was nebulized. This was measured gravimetrically by comparing pre- and post-nebulization weights of the filled nebulizer.
The bronchoprotective effects of compounds administered via inhalation were evaluated using whole body plethysmography at 1.5, 24, 48 and 72 hours post-dose. Forty-five minutes prior to the start of the pulmonary evaluation, each guinea pig was anesthetized with an intramuscular injection of ketamine (43.75 mg/kg), xylazine (3.50 mg/kg) and acepromazine (1.05 mg/kg). After the surgical site was shaved and cleaned with 70% alcohol, a 2-5 cm midline incision of the ventral aspect of the neck was made. Then, the jugular vein was isolated and cannulated with a saline-filled polyethylene catheter (PE-50, Becton Dickinson, Sparks, Md.) to allow for intravenous infusions of a 0.1 mg/mL solution of acetylcholine (Ach), (Sigma-Aldrich, St. Louis, Mo.) in saline. The trachea was then dissected free and cannulated with a 14G teflon tube (#NE-014, Small Parts, Miami Lakes, Fla.). If required, anesthesia was maintained by additional intramuscular injections of the aforementioned anesthetic cocktail. The depth of anesthesia was monitored and adjusted if the animal responded to pinching of its paw or if the respiration rate was greater than 100 breaths/minute.
Once the cannulations were complete, the animal was placed into a plethysmograph (#PLY3114, Buxco Electronics, Inc., Sharon, Conn.) and an esophageal pressure cannula was inserted to measure pulmonary driving pressure (pressure). The teflon tracheal tube was attached to the opening of the plethysmograph to allow the guinea pig to breathe room air from outside the chamber. The chamber was then sealed.
Once it was determined that baseline values were within the range 0.3-0.9 mL/cm H2O for compliance and within the range 0.1-0.199 cm H2O/mL per second for resistance, the pulmonary evaluation was initiated. A Buxco pulmonary measurement computer program enabled the collection and derivation of pulmonary values. Starting this program initiated the experimental protocol and data collection. The changes in volume over time that occurred within the plethysmograph with each breath were measured via a Buxco pressure transducer. By […] this signal over time, a measurement of flow was calculated for each breath. This signal, together with the pulmonary driving pressure changes, which were collected using a Sensym pressure transducer (#TRD4100), was connected via a Buxco (MAX 2270) preamplifier to a data collection interface (#'s SFT3400 and SFT3813). All other pulmonary parameters were derived from these two inputs.
Baseline values were collected for 5 minutes, after which time the guinea pigs were challenged with Ach. […]

Assay [2] concerns the target T1, human β2-adrenoceptor (Homo sapiens, UniProt P07550).
T1 construct: expressed in transfected cells
Nature of the assay: Whole-cell cAMP Flashplate assay, recombinant cell line (Test B). Type of assay: cell-based. The conditions noted are these: for EC50: HEK-293 cells expressing cloned human β2-adrenoceptor, cAMP; for Selectivity β2/β1 (functional): ratio EC50(β1)/EC50(β2); for Selectivity β2/β3 (functional): ratio EC50(β3)/EC50(β2). As for the experimental part: A HEK-293 cell line stably expressing cloned human β1 adrenergic receptor (clone H34.1) was grown to about 70%-90% confluency in medium consisting of DMEM supplemented with 10% FBS and 500 μg/mL Geneticin. A HEK-293 cell line stably expressing cloned human β2-adrenoceptor (clone H24.14) was grown in the same medium to full confluency. A CHO-K1 cell line stably expressing cloned human β3-adrenoceptor was grown to about 70%-90% confluency in Ham's F-12 medium supplemented with 10% FBS and with 800 μg/mL Geneticin added to every fifth passage. The day before the assay, cultures were switched to the same growth-media without antibiotics.
cAMP assays were performed in a radioimmunoassay format using the Flashplate Adenylyl Cyclase Activation Assay System with ^125I-cAMP (NEN SMP004, PerkinElmer Life Sciences Inc., Boston, Mass.), according to the manufacturers instructions.
On the day of the assay, cells were rinsed once with PBS, lifted with Versene 1:5,000 (0.2 g/L EDTA in PBS) and counted. Cells were pelleted by centrifugation at 1,000 rpm and resuspended in stimulation buffer prewarmed to 37° C. For cells expressing the β1-adrenoceptor, 10 nM ICI 118,551 were added to the stimulation buffer, and cells were incubated for 10 min at 37° C. Cells were used at final concentrations of 30,000, 40,000 and 70,000 cells/well for the β1-adrenoceptor-, the β2-adrenoceptor- and the β3-adrenoceptor expressing cells, respectively. Compounds were dissolved to a concentration of 10 mM in DMSO, then diluted to 1 mM in 50 mM Gly-HCl pH 3.0, and from there serially diluted into assay buffer (75 mM Tris/HCl pH 7.4 @ 25° C., 12.5 mM MgCl2, 1 mM EDTA, 0.2% BSA). Compounds were tested in the assay at 11 different concentrations, ranging from 10 μM to […]. Reactions were incubated for 10 min at 37° C. and stopped by addition of 100 μL ice-cold detection buffer. Plates were sealed, incubated over night at 4° C. and counted the next morning in a topcount scintillation counter (Packard BioScience Co., Meriden, Conn.). The amount of cAMP produced per mL of reaction was calculated based on the counts observed for the samples and cAMP standards, as described in the manufacturer's user manual. Data were analyzed by nonlinear regression analysis with the GraphPad Prism Software package (GraphPad Software, Inc., San Diego, Calif.) using the 3-parameter model for sigmoidal dose-response (Hill slope=1). Agonist potencies were expressed as pEC50 values. Functional β2/β1 selectivity was defined as the ratio EC50(β1)/EC50(β2), and correspondingly functional β2/β3 selectivity was defined as the ratio EC50(β3)/EC50(β2).

Assay [3] concerns the target T2, human β2 adrenergic receptor (Homo sapiens, UniProt P07550).
T2 construct: expressed in transfected cells; membrane preparation
The experiment in a line: Radioligand binding assay (Test A). The conditions noted are these: for Ki: [3H]dihydroalprenolol displacement, HEK-293 membranes, results expressed as pKi; for Selectivity β2/β1 (binding): ratio Ki(β1)/Ki(β2). As for the experimental part: HEK-293 derived cell lines stably expressing cloned human β1 or β2 adrenergic receptors, respectively, were grown to near confluency in DMEM with 10% dialyzed FBS in the presence of 500 μg/mL Geneticin. The cell monolayer was lifted with Versene 1:5,000 (0.2 g/L EDTA in PBS) using a cell scraper. Cells were pelleted by centrifugation at 1,000 rpm, and cell pellets were either stored frozen at −80° C. or membranes were prepared immediately. For preparation, cell pellets were resuspended in lysis buffer (10 mM Tris/HCL pH 7.4 @ 4° C., one tablet of “Complete Protease Inhibitor Cocktail Tablets with 2 mM EDTA” per 50 mL buffer (Roche cat.# 1697498, Roche Molecular Biochemicals, Indianapolis, Ind.)) and homogenized using a tight-fitting Dounce glass homogenizer (20 strokes) on ice. The homogenate was centrifuged at 20,000×g, the pellet was washed once with lysis buffer by resuspension and centrifugation as above. The final pellet was resuspended in membrane buffer (75 mM Tris/HCl pH 7.4, […], 1 mM EDTA @ 25° C.). Protein concentration of the membrane suspension was determined by the method of Bradford (Bradford M M., Analytical Biochemistry, 1976, 72, 248-54). Membranes were stored frozen in aliquots at −80° C.
Binding assays were performed in 96-well microtiter plates in a total assay volume of 100 μL with 5 μg membrane protein for membranes containing the human β2 adrenergic receptor, or 2.5 μg membrane protein for membranes containing the human β1 adrenergic receptor in assay buffer (75 mM Tris/HCl pH 7.4 @ 25° C., 12.5 mM MgCl2, 1 mM EDTA, 0.2% BSA). […] Non-specific binding was determined in the presence of 10 μM unlabeled alprenolol. […] Filter plates were washed three times with filtration buffer (75 mM Tris/HCl pH 7.4 @ 4° C., 12.5 mM MgCl2, 1 mM EDTA) to remove unbound radioactivity. Plates were dried, 50 μL Microscint-20 liquid scintillation fluid (Packard BioScience Co., Meriden, Conn.) was added and plates were counted in a Packard Topcount liquid scintillation counter (Packard BioScience Co., Meriden, Conn.). Binding data were analyzed by nonlinear regression analysis with the GraphPad Prism Software package (GraphPad Software, Inc., San Diego, Calif.) using the 3-parameter model for one-site competition. The curve minimum was fixed to the value for nonspecific binding, as determined in the presence of 10 μM alprenolol. Ki values for compounds were calculated from observed IC50 values and the Kd value of the radioligand using the Cheng-Prusoff equation (Cheng Y, and Prusoff W H., Biochemical Pharmacology, 1973, 22, 23, 3099-108). The receptor subtype selectivity was calculated as the ratio of Ki(β1)/Ki(β2).
Binding results are expressed as the negative decadic logarithm of the Ki values, pKi. […]

Assay [4] deals with T2, human β2 adrenergic receptor. Nature of the assay: Whole-cell cAMP Flashplate assay, lung epithelial cell line BEAS-2B endogenously expressing receptor (Test C). Format: cell-based. As for the experimental part: For the determination of agonist potencies and efficacies (intrinsic activities) in a cell line expressing endogenous levels of β2 adrenergic receptor, a human lung epithelial cell line (BEAS-2B) was used (ATCC CRL-9609, American Type Culture Collection, Manassas, Va.) (January B, et al., British Journal of Pharmacology, 1998, 123, 4, 701-11). Cells were grown to 75-90% confluency in complete, serum-free medium (LHC-9 MEDIUM containing Epinephrine and Retinoic Acid, cat #181-500, Biosource International, Camarillo, Calif.). The day before the assay, medium was switched to LHC-8 (No epinephrine or retinoic acid, cat #141-500, Biosource International, Camarillo, Calif.). […]
On the day of the assay, cells were rinsed with PBS, lifted by scraping with 5 mM EDTA in PBS, and counted. […]
Compounds were tested in the assay at 10 different concentrations, ranging from 10 μM to […]. Maximal response was determined in the presence of 10 μM Isoproterenol. […] Plates were sealed, incubated over night at 4° C. and counted the next morning in a topcount scintillation counter (Packard BioScience Co., Meriden, Conn.). The amount of cAMP produced per mL of reaction was calculated based on the counts observed for samples and cAMP standards, as described in the manufacturer's user manual. […]

SMILES strings stand for the structures.

T1 sequence (P07550 whole entry): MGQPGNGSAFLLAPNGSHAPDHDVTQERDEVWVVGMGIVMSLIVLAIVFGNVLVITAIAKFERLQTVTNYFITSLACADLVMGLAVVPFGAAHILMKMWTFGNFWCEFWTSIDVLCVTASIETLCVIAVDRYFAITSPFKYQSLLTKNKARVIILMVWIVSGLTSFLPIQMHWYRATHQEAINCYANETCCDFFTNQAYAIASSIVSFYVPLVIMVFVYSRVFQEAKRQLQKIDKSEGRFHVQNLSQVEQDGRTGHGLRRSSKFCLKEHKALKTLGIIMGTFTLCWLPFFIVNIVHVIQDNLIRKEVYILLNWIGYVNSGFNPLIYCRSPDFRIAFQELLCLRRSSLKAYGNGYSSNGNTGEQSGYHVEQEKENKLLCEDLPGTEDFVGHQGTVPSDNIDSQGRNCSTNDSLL
T2 sequence (P07550 whole entry): as above

On to `O=c1ccc2c([C@@H](O)CNCCCCCCOCCc3ccccc3)ccc(O)c2[nH]1` [Comparison Compound, 8-hydroxy-5-[(R)-1-hydroxy-2-(6-phenethyloxy-hexylamino)ethyl]-1H-quinolin-2-one, reference compound], for which, in assay [1], the “Activity at 1.5 hours post dose” value was “Yes” and the “Activity at 72 hours post dose” value is on record as “No”. The “Activity at 72 hours post dose” value in assay [1] (listed as comparison compound) was “not active”. In addition, in assay [2], the EC50 is 0.0501 nM, the “Selectivity β2/β1 (functional)” value is listed as 54 and the “Selectivity β2/β3 (functional)” value is 370. Further, in assay [3], the Ki was 0.794 nM and the “Selectivity β2/β1 (binding)” value is recorded as 76.
Regarding `O=c1ccc2c([C@@H](O)CNCCCCCCNCCc3ccccc3)ccc(O)c2[nH]1` [Compound of the Invention, 8-hydroxy-5-[(R)-1-hydroxy-2-(6-phenethylamino-hexylamino)ethyl]-1H-quinolin-2-one], in assay [1], the “Activity at 1.5 hours post dose” value is listed as “Yes” and the “Activity at 72 hours post dose” value is “Yes”. Also, the “Activity at 72 hours post dose” value in assay [1] (listed as compound of the invention) is “demonstrated bronchoprotection”. Moreover, in assay [2], the EC50 was 0.316 nM, the “Selectivity β2/β1 (functional)” value was 107 and the “Selectivity β2/β3 (functional)” value amounted to 3900. The 50% effective concentration (EC50) in assay [4] (BEAS-2B endogenous cell line, cAMP) was 3.16 nM. For the same compound, in assay [4] (BEAS-2B, Emax relative to 10 μM isoproterenol, read-out: % Efficacy), the Emax is 68%. Moreover, in assay [3], the affinity corresponds to a Ki of 25.1 nM and the “Selectivity β2/β1 (binding)” value came to 18.

Broadly, the EC50 is the concentration giving half of the maximal effect. The Ki is the dissociation constant of the complex between target and ligand, obtained from inhibition or displacement. A higher Ki goes with a looser hold on the target.
